From PubChem BioAssay AID256 (DTP/NCI, 2004)
“And” between values parts separate entries of the source, which are not always exact repeats. Identical values can stand only once. Inconclusive results and toxic doses are left out.

Tested on: CD2F1 mice, L1210 leukemia ip, survival T/C
Experiment: NCI In Vivo Anticancer Drug Screen. Data for tumor model L1210 Leukemia (intraperitoneal) in CD2F1 (CDF1) mice
Settings: higher = longer survival
Outline: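 Each value reflects a quotient of treated over vehicle control outcomes in mice with a transplanted tumor.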

[1] = endpoint: mean survival time, dose: 100.0 mg/kg/injection, schedule: Q04DX003 (ip), vehicle: saline
[2] = endpoint: mean survival time, dose: 200.0 mg/kg/injection, schedule: Q04DX003 (ip), vehicle: saline
[3] = endpoint: mean survival time, dose: 400.0 mg/kg/injection, schedule: Q04DX003 (ip), vehicle: saline
[4] = endpoint: mean survival time, dose: 6.25 mg/kg/injection, schedule: Q01DX009 (ip), vehicle: water
[5] = endpoint: mean survival time, dose: 25.0 mg/kg/injection, schedule: Q01DX009 (ip), vehicle: saline with Tween-80
[6] = endpoint: mean survival time, dose: 50.0 mg/kg/injection, schedule: Q01DX009 (ip), vehicle: saline with Tween-80
[7] = endpoint: mean survival time, dose: 200.0 mg/kg/injection, schedule: Q01DX009 (ip), vehicle: saline with Tween-80
[8] = endpoint: mean survival time, dose: 100.0 mg/kg/injection, schedule: Q04DX003 (ip), vehicle: saline with Tween-80
[9] = endpoint: mean survival time, dose: 200.0 mg/kg/injection, schedule: Q04DX003 (ip), vehicle: saline with Tween-80
[10] = endpoint: mean survival time, dose: 400.0 mg/kg/injection, schedule: Q04DX003 (ip), vehicle: saline with Tween-80
[11] = endpoint: mean survival time, dose: 100.0 mg/kg/injection, schedule: Q01DX009 (ip), vehicle: saline with Tween-80
[12] = endpoint: mean survival time, dose: 400.0 mg/kg/injection, schedule: Q01DX009 (ip), vehicle: saline with Tween-80
[13] = endpoint: mean survival time, dose: 100.0 mg/kg/injection, schedule: Q01DX001 (ip), vehicle: saline
[14] = endpoint: mean survival time, dose: 200.0 mg/kg/injection, schedule: Q01DX001 (ip), vehicle: saline
[15] = endpoint: mean survival time, dose: 400.0 mg/kg/injection, schedule: Q01DX001 (ip), vehicle: saline

N#CCCN(C(=S)Nc1cccc(C(F)(F)F)c1)C1CCCCC1
T/C (endpoint: mean survival time, dose: 12.5 mg/kg/injection, schedule: Q01DX009 (ip), vehicle: Klucel (hydroxypropylcellulose) (HPC)): 92 % of control | T/C (endpoint: mean survival time, dose: 25.0 mg/kg/injection, schedule: Q01DX009 (ip), vehicle: Klucel (hydroxypropylcellulose) (HPC)): 97 % of control | T/C (endpoint: mean survival time, dose: 50.0 mg/kg/injection, schedule: Q01DX009 (ip), vehicle: Klucel (hydroxypropylcellulose) (HPC)): 98 % of control | T/C (endpoint: mean survival time, dose: 100.0 mg/kg/injection, schedule: Q01DX009 (ip), vehicle: Klucel (hydroxypropylcellulose) (HPC)): 98 % of control | T/C (endpoint: mean survival time, dose: 200.0 mg/kg/injection, schedule: Q01DX009 (ip), vehicle: Klucel (hydroxypropylcellulose) (HPC)): 98 % of control | T/C (endpoint: mean survival time, dose: 400.0 mg/kg/injection, schedule: Q01DX009 (ip), vehicle: Klucel (hydroxypropylcellulose) (HPC)): 101 % of control | T/C (endpoint: median survival time, dose: 100.0 mg/kg/injection, schedule: Q01DX009 (ip), vehicle: Klucel (hydroxypropylcellulose) (HPC)): 101 % of control | T/C (endpoint: median survival time, dose: 200.0 mg/kg/injection, schedule: Q01DX009 (ip), vehicle: Klucel (hydroxypropylcellulose) (HPC)): 103 % of control | T/C (endpoint: median survival time, dose: 400.0 mg/kg/injection, schedule: Q01DX009 (ip), vehicle: Klucel (hydroxypropylcellulose) (HPC)): 104 % of control

CCC(C)(C)N
T/C [1]: 100 % of control | T/C [2]: 106 % of control | T/C [3]: 103 % of control

NC(=O)c1n[nH]c(C2OC(COP(=O)(O)O)C(O)C2O)n1 (stereo not drawn)
T/C (endpoint: mean survival time, dose: 12.5 mg/kg/injection, schedule: Q01DX005 (ip), vehicle: water): 100 % of control | T/C (endpoint: mean survival time, dose: 25.0 mg/kg/injection, schedule: Q01DX005 (ip), vehicle: water): 100 % of control | T/C (endpoint: mean survival time, dose: 50.0 mg/kg/injection, schedule: Q01DX005 (ip), vehicle: water): 96 % of control | T/C (endpoint: mean survival time, dose: 100.0 mg/kg/injection, schedule: Q01DX005 (ip), vehicle: water): 97 % of control | T/C (endpoint: mean survival time, dose: 200.0 mg/kg/injection, schedule: Q01DX005 (ip), vehicle: water): 96 % of control

C[n+]1c2ccccc2c(Nc2ccc(NS(=O)(=O)CCCCN=C(N)N)cc2)c2ccc(N)cc21
T/C [4]: 314 % of control

CN(C)N=Nc1c(F)cc(F)cc1F
T/C [5]: 98 % of control | T/C [6]: 102 % of control | T/C [7]: 90 % of control

CCCCCCCCCCNC(=O)C[n+]1cccc(C(=O)N(CC)CC)c1
T/C (endpoint: mean survival time, dose: 6.25 mg/kg/injection, schedule: Q01DX009 (ip), vehicle: saline with Tween-80): 91 % of control | T/C (endpoint: mean survival time, dose: 12.5 mg/kg/injection, schedule: Q01DX009 (ip), vehicle: saline with Tween-80): 97 % of control | T/C [5]: 91 % of control

COc1ccc2c(c1)CCC1(C)C2=CC(=O)/C1=C\[O-].COc1ccc2c(c1)CCC1(C)C2=CC(=O)/C1=C\[O-].[Cu+2] (stereo not drawn)
T/C (endpoint: mean survival time, dose: 25.0 mg/kg/injection, schedule: Q04DX003 (ip), vehicle: saline with Tween-80): 96 % of control | T/C (endpoint: mean survival time, dose: 50.0 mg/kg/injection, schedule: Q04DX003 (ip), vehicle: saline with Tween-80): 87 % of control | T/C [8]: 86 % of control

COc1cc2c(C)nc3c4cc5c(cc4ccc3c2cc1OC)OCO5
T/C (endpoint: mean survival time, dose: 3.13 mg/kg/injection, schedule: Q01DX009 (ip), vehicle: water): 97 % of control | T/C [4]: 92 % of control | T/C (endpoint: mean survival time, dose: 12.5 mg/kg/injection, schedule: Q01DX009 (ip), vehicle: water): 90 % of control | T/C (endpoint: mean survival time, dose: 25.0 mg/kg/injection, schedule: Q01DX009 (ip), vehicle: water): 95 % of control | T/C (endpoint: mean survival time, dose: 50.0 mg/kg/injection, schedule: Q01DX009 (ip), vehicle: water): 93 % of control

CC(O)C1CCC2C3CCC4CC(O)CCC4(C)C3CCC12C (stereo not drawn)
T/C [8]: 95 % of control | T/C [9]: 96 % of control | T/C [10]: 101 % of control

N#CCCn1ccc2ccccc21
T/C (endpoint: mean survival time, dose: 100.0 mg/kg/injection, schedule: Q01DX009 (ip), vehicle: other): 98 % of control | T/C (endpoint: mean survival time, dose: 200.0 mg/kg/injection, schedule: Q01DX009 (ip), vehicle: other): 104 % of control | T/C (endpoint: mean survival time, dose: 400.0 mg/kg/injection, schedule: Q01DX009 (ip), vehicle: other): 98 % of control

CCOC(=O)C(OCC)c1ccccc1 (stereo not drawn)
T/C [11]: 105 % of control | T/C [7]: 101 % of control | T/C [12]: 95 % of control

c1ccc(N/N=C(/N=Nc2ccc(-c3ccc(N=N/C(=N/Nc4ccccc4)c4ccccc4)cc3)cc2)c2ccccc2)cc1
T/C [6]: 97 % of control | T/C [11]: 97 % of control | T/C [7]: 102 % of control

N#Cc1ccc(OCc2nc(N)nc(N)c2-c2ccc(Cl)c(Cl)c2)cc1
T/C [6]: 90 % of control | T/C [11]: 102 % of control | T/C [7]: 110 % of control

COC1C(CO)OC(O)C(N)C1OC (stereo not drawn)
T/C [13]: 103 % of control | T/C [14]: 103 % of control | T/C [15]: 97 % of control

CC(CCC(C)OS(C)(=O)=O)OS(C)(=O)=O (stereo not drawn)
T/C (endpoint: mean survival time, dose: 4.0 mg/kg/injection, schedule: Q01DX009 (ip), vehicle: saline): 118 % of control and 107 % of control | T/C (endpoint: mean survival time, dose: 8.0 mg/kg/injection, schedule: Q01DX009 (ip), vehicle: saline): 110 % of control

OC(Cc1cccc(/C=N/N2CCOCC2)n1)(C(F)(F)F)C(F)(F)F
T/C [9]: 89 % of control | T/C [10]: 89 % of control

Nc1nc2c(nnn2C2CC(O)C(CO)C2)c(=O)[nH]1 (stereo not drawn)
T/C [11]: 100 % of control | T/C [7]: 104 % of control

CC(=O)Nc1ccc2c(c1)C(=O)c1ccccc1-2
T/C (endpoint: mean survival time, dose: 50.0 mg/kg/injection, schedule: Q01DX001 (ip), vehicle: saline): 104 % of control | T/C [13]: 101 % of control | T/C (endpoint: mean survival time, dose: 100.0 mg/kg/injection, schedule: Q01DX009 (ip), vehicle: saline): 106 % of control | T/C [1]: 87 % of control | T/C [14]: 95 % of control | T/C (endpoint: mean survival time, dose: 200.0 mg/kg/injection, schedule: Q01DX009 (ip), vehicle: saline): 96 % of control | T/C [2]: 94 % of control | T/C [15]: 87 % of control | T/C (endpoint: mean survival time, dose: 400.0 mg/kg/injection, schedule: Q01DX009 (ip), vehicle: saline): 95 % of control | T/C [3]: 92 % of control

C=C(C)C(=O)O[C@H]1[C@H]2[C@H](OC(=O)[C@H]2C)[C@H](O)[C@@H](C)[C@@H]2C=CC(=O)[C@]21C
T/C (endpoint: mean survival time, dose: 3.13 mg/kg/injection, schedule: Q01DX009 (ip), vehicle: saline): 91 % of control | T/C (endpoint: mean survival time, dose: 6.25 mg/kg/injection, schedule: Q01DX009 (ip), vehicle: saline): 95 % of control | T/C (endpoint: mean survival time, dose: 7.5 mg/kg/injection, schedule: Q01DX009 (ip), vehicle: saline): 102 % of control | T/C (endpoint: mean survival time, dose: 12.5 mg/kg/injection, schedule: Q01DX009 (ip), vehicle: saline): 93 % of control | T/C (endpoint: mean survival time, dose: 15.0 mg/kg/injection, schedule: Q01DX009 (ip), vehicle: saline): 103 % of control | T/C (endpoint: mean survival time, dose: 25.0 mg/kg/injection, schedule: Q01DX009 (ip), vehicle: saline): 108 % of control | T/C (endpoint: mean survival time, dose: 30.0 mg/kg/injection, schedule: Q01DX009 (ip), vehicle: saline): 102 % of control

N#Cc1c(F)c(F)c(Oc2c(F)c(F)c(F)c(F)c2F)c(F)c1F
T/C [8]: 94 % of control | T/C [9]: 91 % of control

C=Cc1cc[n+](CCCCCC[n+]2ccc(C=C)cc2)cc1
T/C [13]: 92 % of control | T/C [14]: 92 % of control | T/C [15]: 88 % of control

CCC(=O)Nc1ncc([N+](=O)[O-])s1
T/C [6]: 94 % of control | T/C [11]: 100 % of control

COc1ccc2nc(C(C)O)[nH]c2c1 (stereo not drawn)
T/C [11]: 89 % of control | T/C [8]: 103 % of control | T/C [7]: 93 % of control | T/C [9]: 101 % of control | T/C [12]: 89 % of control | T/C [10]: 96 % of control

CCCCCCCCCCCCCCCCCCC(C)c1ccccc1 (stereo not drawn)
T/C (endpoint: mean survival time, dose: 100.0 mg/kg/injection, schedule: Q01DX001 (ip), vehicle: saline with Tween-80): 101 % of control | T/C (endpoint: mean survival time, dose: 200.0 mg/kg/injection, schedule: Q01DX001 (ip), vehicle: saline with Tween-80): 97 % of control | T/C (endpoint: mean survival time, dose: 400.0 mg/kg/injection, schedule: Q01DX001 (ip), vehicle: saline with Tween-80): 101 % of control

CC(=O)CC(=O)OCc1ccccc1
T/C [8]: 100 % of control | T/C [9]: 95 % of control | T/C [10]: 103 % of control

O=C1Cc2ccccc2C(=O)N1
T/C (endpoint: mean survival time, dose: 100.0 mg/kg/injection, schedule: Q01DX009 (ip), vehicle: saline sonified): 97 % of control | T/C (endpoint: mean survival time, dose: 200.0 mg/kg/injection, schedule: Q01DX009 (ip), vehicle: saline sonified): 98 % of control | T/C (endpoint: mean survival time, dose: 400.0 mg/kg/injection, schedule: Q01DX009 (ip), vehicle: saline sonified): 89 % of control

Clc1ccc(NC(Nc2ccc(Cl)cc2Cl)C(Cl)(Cl)Cl)c(Cl)c1
T/C [11]: 101 % of control | T/C [7]: 106 % of control | T/C [12]: 95 % of control
